Assay results taken from patent US20060110710A1, “Endodontic ozone therapy” (priority 2001, published 2006).

Key:
Month ulcerations = experiment: Effect of ozone in the treatment of mouth ulcerations; type: in vivo; conditions: exposed to ozone
Lactobacillus salivarius = experiment: Ozone exposure of bacteria cultures (root canals); type: cell-based; conditions: exposed to ozone
[1] = Ozone exposure of bacteria cultures (root canals); type: cell-based, Streptococcus aurous; conditions: exposed to ozone
[2] = system: Microflora from Primary Root Caries; experiment: Ozone effect on microflora from primary root caries ex-vivo; type: cell-based; conditions: for Mean ± SE of Total cfu (Log10): after 10 seconds of ozone treatment
Excerpt: Primary root carious lesions (PRCL) are a major clinical problem. […] An ozone producing generator (Purezone Ltd., Ipswich, U.K.) was used in this ex-vivo study assessing the use of ozone on PRCL. In this study, soft PRCL requiring restoration were used as these are the most severe type of lesion found in humans. 20 freshly extracted teeth with PRCL requiring restoration were used. After plaque removal using a hand held standard fine nylon fiber sterile toothbrush with sterile water as a lubricant to cleanse the surface, each tooth was then isolated using sterile cotton wool rolls and dried using a dry sterile cotton wool roll. […] Each sample was weighed and immediately placed in 1 ml of Fastidious Anaerobe Broth (FAB). […] They were vortexed for 30 seconds to facilitate the extraction of any micro-organisms from the carious dentine and disperse any aggregates. After decimal dilution with FAB, […] of these was spread on Fastidious Anaerobe Agar (LabM, Bury, […].) supplemented with 5% (v/V) horse blood in an anaerobic chamber at 37° C. for four days. The mean±SE number of each colony type was counted and calculated. The procedure of Example 2 was repeated except that ozonized water was applied to the lesion for 20 seconds. […] The aims of these studies were to evaluate the efficiency of ozone on primary root caries and associated micro-organisms (Streptococcus sobrinus; TH 21 Streptococcus mutans; NCTC 10449). […] In study 2, 40 sterile saliva coated glass beads were put into bijoux bottles with 3 mls of Todd Hewitt broth for control and test groups. S. sobrinus and S. mutans were inoculated and incubated anaerobically overnight. Each glass bead was washed with 2 mls of PBS. […] Subsequently, each glass bead in the test and control groups was placed in 3 mls of Todd Hewitt broth with six more sterile glass beads and were vortexed for 30 seconds. After decimal dilutions, […] were spread on blood agar plates supplemented with 5% (V/V) horse blood and placed in an anaerobic chamber at 37° C. for two days. The number of each colony type was counted and calculated. […] This treatment regime is therefore an effective, quick, conservative and simple method to kill micro-organisms in primary root carious lesions.

[3] = 1H NMR evaluation of the oxidative consumption of salivary biomolecules by ozone; conditions: O3 for 30 seconds; unstimulated human saliva 0.60 ml; 1H NMR 600 MHz
Excerpt: Ozone is one of nature's most powerful oxidants which accounts for its ability to kill bacteria, spores and viruses. Uniquely, ozone decomposes to a harmless, non-toxic and environmentally safe material (oxygen). In this investigation, a multicomponent evaluation of the oxidative consumption of salivary biomolecules by ozone (O3) has been performed using high resolution proton (^1H) nuclear magnetic resonance (NMR) spectroscopy. The ozone-generating equipment employed in this study was designed by Purezone Ltd. (Ipswich, U.K.). Unstimulated human saliva samples were collected from 8 patients and each of them was divided into two equivalent portions (0.60 ml). The first of these was treated with O3 generated from the above device for a period of 30 seconds; the second group of portions served as controls. Samples were subjected to ^1H NMR analysis at an operating frequency of 600 MHz. […] High field ^1H NMR spectroscopy provides much useful analytical data regarding the fate of O3 in human saliva, information which is of much relevance to its potential therapeutic actions in vivo.

[4] = system: Lactobacillus acidophilus; experiment: Ozone exposure of bacteria cultures (root canals); type: cell-based; conditions: exposed to ozone
[5] = system: microorganisms associated with bad breath; experiment: Effect of ozone in the treatment of bad breath; type: in vivo; conditions: mouth exposed to ozone
Excerpt: Bad breath is caused, in part, by the retention and subsequent degradation of dead cellular material, by microorganisms, sloughed off continuously by a normal, healthy mouth.

[6] = system: Streptococcus sobrinus; TH 21; experiment: Ozone on S. sobrinus on saliva coated glass beads; type: cell-based; conditions: 10 seconds of ozone on saliva coated glass beads
Excerpt: The aims of these studies were to evaluate the efficiency of ozone on primary root caries and associated micro-organisms (Streptococcus sobrinus; TH 21 Streptococcus mutans; NCTC 10449). In study 1, 40 soft primary root carious lesions (PRCLs) from freshly extracted teeth were used and randomly divided into two groups to test the exposure to ozone for either 10 or 20 seconds. There was a significant (p<0.001) difference (Mean±SE) between the control samples for either 10 seconds (log10 5.91±0.15) or 20 seconds (log10 6.18±0.21) and ozone treated samples for either 10 seconds (log10 3.57±0.37) or 20 seconds (log10 3.77±0.42). In study 2, 40 sterile saliva coated glass beads were put into bijoux bottles with 3 mls of Todd Hewitt broth for control and test groups. S. sobrinus and S. mutans were inoculated and incubated anaerobically overnight. Each glass bead was washed with 2 mls of PBS. Immediately, 10 seconds of ozone was applied to the glass beads in the test groups. Subsequently, each glass bead in the test and control groups was placed in 3 mls of Todd Hewitt broth with six more sterile glass beads and were vortexed for 30 seconds. After decimal dilutions, […] were spread on blood agar plates supplemented with 5% (V/V) horse blood and placed in an anaerobic chamber at 37° C. for two days. The number of each colony type was counted and calculated. […]

[7] = system: Inflamed human gingivitis; experiment: Effect of ozone on gum disease; type: in vivo; conditions: after exposure to ozone
Excerpt: Inflamed human gingivitis is exposed to ozone using the techniques herein described.

With O=[O+][O-] [ozone] as the compound, how does the “enzyme levels in the month ulcerations” value (Month ulcerations) read?
The value was “alleviated and/or reduced”.

And the “microorganisms in the ulceration” value (Month ulcerations)?
Its value is “eliminated or reduced”.

What about the “growth of the bacteria cultures” value (Lactobacillus salivarius) of the same compound?
The value was “eliminated or inhibited”.

What about the “growth of the bacteria cultures” value [1] of the same compound?
The value was “eliminated or inhibited”.

And the “percentage of micro-organisms killed” value ([2]; 10 seconds of ozone treatment)?
The value was “more than 99%”.

And the “Mean ± SE of Total cfu (Log10)” value ([2]; soft PRCL of freshly extracted teeth)?
Its value is 3.57±0.37 Log10.

And the “Mean ± SE of Total cfu (Log10)” value ([2]; soft PRCL of freshly extracted teeth, listed as Ozone)?
The value was 3.57 ± 0.37 Log10.

What about the “Total cfu, log10, mean±SE” value ([2]; after 20 seconds of ozone treatment, soft PRCL of freshly extracted teeth) of the same compound?
The value was 3.77±0.42 log10.

And the “effect of O3 treatment on salivary 3-D-hydroxybutyrate” value [3]?
The value was “evidence for the O3-mediated oxidation of salivary 3-D-hydroxybutyrate”.

What about the “effect of O3 treatment on salivary methionine” value [3] of the same compound?
Its value is “oxidation of the volatile sulphur compound precursor methionine to its corresponding sulphoxide”.

And the “effect of O3 treatment on salivary polyunsaturated fatty acids” value [3]?
The value was “oxidative consumption of salivary polyunsaturated fatty acids”.

And the “effect of O3 treatment on salivary pyruvate” value [3]?
Its value is “oxidative decarboxylation of the salivary electron-donor pyruvate”.

And the “growth of the bacteria cultures” value [4]?
The value was “eliminated or inhibited”.

What about the “enzyme levels in the month” value [5] of the same compound?
The value was “alleviated and/or reduced”.

What about the “microorganisms associated with bad breath” value [5] of the same compound?
Its value is “eliminated or reduced”.

What about the “colony count, log10, Mean±SE” value [6] of the same compound?
Its value is 1.09±0.36 log10.

And the “enzyme levels in extracts from inflamed human gingiva” value [7]?
Its value is “alleviated and/or reduced”.
